Data from patent US5039679A, “Certain derivatives of 1,4-dihydro-5-isopropoxy-1,6-naphthyridine-3-carboxylic acid, pharmaceutical compositions containing them, and methods of using them” (Goedecke Aktiengesellschaft, priority 1989, dated 1991).
Structures can show the parent of a compound that is named as a salt. Where two headings read alike, the source gives them in different places.

Legend:
[1] = pharmacological results, blood pressure lowering activity compared with other derivatives; assay type: in vivo; details: in comparison with the other derivatives, in words
Source text: The pharmacological results are even more marked in the case of the […] which were obtained according to the usual methods of racemate separation.

[2] = stress test, 2 weeks, heat or light (stability); assay type: physicochemical
Description: The hydrochloride is unstable even at ambient temperature and a stress test gave, after heating for 2 weeks at 45° C. in the dark, 10% of decomposition products and at ambient temperature in the light 30% of the compound had decomposed after 2 weeks.
In addition, it is also stable under the above-mentioned stress conditions (2 weeks at 45° C. in the dark and 2 weeks at ambient temperature in the light).

[3] = Solubility in water and artificial gastric juice (Table 1); assay type: physicochemical
[4] = tested on: Spontaneously Hypertensive Rats; assay: blood pressure lowering after oral administration, Spontaneously Hypertensive Rats (Table 2); assay type: in vivo
Source text: |Spontaneously Hypertensive Rats

[5] = animal experiments, commencement of activity; assay type: in vivo; details: in words
[6] = Spontaneously Hypertensive Rats, 1 mg/kg PO, n = 6, 1 mg/kg

| degraded at 336 h ([2]; after heating for 2 weeks at 45° C. in the dark, read-out: decomposition products) | degraded at 336 h ([2]; ambient temperature in the light, after 2 weeks, read-out: decomposed compound) | stability ([2]; ambient temperature, in words) | Solubility in Artificial Gastric Juice [3] | solubility in water ([3]; in words) | solubility in water ([3]; water) | stability under stress conditions ([2]; 2 weeks at 45° C. in the dark and 2 weeks at ambient temperature in the light, in words) | SMILES | blood pressure lowering activity [1] | blood pressure lowering action [4, 6] | commencement of activity [5] | commencement of activity ([4]; rats, oral administration, fumarate compared with hydrochloride, in words) | blood pressure lowering action ([4]; rats, oral, fumarate compared with hydrochloride, in words) |
| --- | --- | --- | --- | --- | --- | --- | --- | --- | --- | --- | --- | --- |
|  |  |  |  |  |  |  | CC1=C(C(=O)OCCN(C)Cc2ccccc2)C(c2ccccc2C(F)(F)F)c2c(ccnc2OC(C)C)N1 (racemic) [(±), (±)-1,4-dihydro-5-isopropoxy-2-methyl-4-(2-trifluoromethylphenyl)-1,6-naphthyridine-3-carboxylic acid [2-(N-methyl-N-phenyl-methylamino)-ethyl] ester fumarate] | especially marked blood pressure lowering activity |  |  |  |  |
| 10% | 30% | unstable | 20% | good solubility | 20% |  | CC1=C(C(=O)OCCN(C)Cc2ccccc2)C(c2ccccc2C(F)(F)F)c2c(ccnc2OC(C)C)N1 (single isomer, unassigned) [Hydrochloride, reference compound] |  | 17% ± 4.4 | very rapid commencement of activity |  |  |
|  |  |  |  |  |  |  | CC1=C(C(=O)OCCN(C)Cc2ccccc2)C(c2ccccc2C(F)(F)F)c2c(ccnc2OC(C)C)N1 (single isomer, unassigned; (+)) [(+)-1,4-dihydro-5-isopropoxy-2-methyl-4-(2-trifluoro-methylphenyl)-1,6-naphthyridine-3-carboxylic acid [2-(N-methyl-N-phenylmethylamino)-ethyl] ester] | Especially active |  |  |  |  |
|  |  |  | 1.5% | considerable lower water solubility | 0.1% | stable | CC1=C(C(=O)OCCN(C)Cc2ccccc2)C(c2ccccc2C(F)(F)F)c2c(ccnc2OC(C)C)N1 (single isomer, unassigned; (+)) [Fumarate, (+)-1,4-dihydro-5-isopropoxy-2-methyl-4-(2-trifluoromethylphenyl)1,6-naphthyridine-3-carboxylic acid [2-(N-methyl-N-phenyl-methylamino)-ethyl] ester fumarate] |  | 26% ± 1.7 |  | somewhat later | substantially stronger |
